Experimental data: paper PMC9814779, “A triple farnesoid X receptor and peroxisome proliferator-activated receptor α/δ activator reverses hepatic fibrosis in diet-induced NASH in mice” (Communications Chemistry, 2020)

Legend:
[1] = test system: diet-induced mouse model of NASH; conditions: cited from earlier work
[2] = target: T1, human PPARα ligand-binding domain (Gal4 chimera) (Homo sapiens, UniProt Q07869); test: Gal4 hybrid reporter gene assay, PPARα; format: cell-based; parameters: Emax: dose or concentration left out as unconfirmed
T1 construct: coding for the hinge region and LBD of the canonical isoform of the respective nuclear receptor; expressed in transfected cells; host or cells: HEK293T
T1 sequence (Q07869 239-466 limits assumed): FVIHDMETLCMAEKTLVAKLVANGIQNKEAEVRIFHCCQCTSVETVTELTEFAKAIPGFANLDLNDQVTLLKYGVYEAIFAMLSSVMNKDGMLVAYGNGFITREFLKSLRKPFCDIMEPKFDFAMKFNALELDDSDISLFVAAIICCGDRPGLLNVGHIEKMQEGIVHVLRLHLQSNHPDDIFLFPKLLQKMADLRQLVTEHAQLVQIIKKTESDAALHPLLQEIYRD

[3] = test system: human full-length PPAR response element (PPRE) reporter; test: Full-length PPAR response element (PPRE) reporter gene assay in HEK293T cells; format: cell-based; conditions: HEK-293T, mean ± SEM, n = 3
Description: (§1) For the hybrid reporter gene assays, the previously reported Gal4-fusion receptor plasmids pFA-CMV-hPPARα-LBD[29], pFA-CMV-hPPARδ-LBD[29], pFA-CMV-hPPARγ-LBD[29], pFA-CMV-hLXRα-LBD[30], pFA-CMV-hLXRβ-LBD[30], pFA-CMV-hRXRα-LBD[31], pFA-CMV-hRXRβ-LBD[31], pFA-CMV-hRXRγ-LBD[31], pFA-CMV-hRARα-LBD[31], pFA-CMV-hRARβ-LBD[31], pFA-CMV-hRARγ-LBD[31], pFA-CMV-hVDR-LBD[31], and pFA-CMV-hCAR-LBD[31] coding for the hinge region and LBD of the canonical isoform of the respective nuclear receptor were used. pFR-Luc (Stratagene) was used as reporter plasmid for Gal4 hybrid reporter gene assays. pcDNA3-hFXR[32] and pSG5-hRXR[33] served for receptor overexpression in the full-length FXR assay and pGL3basic (Promega Corporation, Fitchburg, WI, USA) with a shortened construct of the BSEP promoter cloned into the SacI/NheI cleavage site in front of the luciferase gene[34] was used as reporter. PPRE-pGL3[35] contains the human full-length PPRE (cloned into the SacI/NheI cleavage site in front of the luciferase gene) and was used as reporter plasmid for the full-length PPRE reporter gene assay. pRL-SV40 (Promega) was used in all assays for normalization of transfection efficiency and cell growth.
(§2) Before transfection, medium was changed to Opti-MEM without supplements. […] Luminescence was measured with a Spark 10 M luminometer (Tecan Deutschland GmbH). […]

[4] = test system: nuclear receptors related to PPARs and FXR (LXRα/β, RXRα/β/γ, RARα/β/γ, VDR, CAR); test: Selectivity screening among nuclear receptors (Gal4 hybrid reporter gene assays); format: cell-based, human; conditions: three independent experiments
Description: as §1, §2

[5] = test system: FXR- and PPAR-regulated genes in mouse liver; test: Pilot animal experiment: hepatic FXR- and PPAR-regulated mRNA expression; format: in vivo, mice; conditions: single oral dose 10 mg/kg
Procedure: Nine male RjOrl:Swiss (CD-1) mice (38–41 g body weight, purchased from Janvier Labs, France) were used for the pilot in vivo study. […] Food and water were available ad libitum. The in-life phase was performed by the contract research organization Pharmacelsus (Saarbrücken, Germany). All experimental procedures were approved by and conducted in accordance with the regulations of the local Animal Welfare authorities (Landesamt für Gesundheit und Verbraucherschutz, Abteilung Lebensmittel- und Veterinärwesen, Saarbrücken). Six animals received a single oral dose of 10 mg/kg body weight of 41, and three animals received the vehicle. Water containing 1% hydroxypropyl methylcellulose (HPMC)/Tween 80 (99:1) served as vehicle.
Twelve or 18 hours after test compound application, mice were anesthetized under isoflurane and then sacrificed by cervical dislocation for tissue collection. Complete livers were obtained, immediately snap-frozen, and stored at −80 °C until further evaluation.
Liver tissue samples from mice were used to study the mRNA expression of FXR- and PPAR-regulated genes. To homogenize the tissue samples for qRT-PCR analysis, one-third of each liver was placed on a Falcon Cell Strainer with 40-μm pore size (BD Bioscience, Erembodegem, Belgium) in a 50-mL Falcon tube. Every tissue was rinsed with PBS buffer containing 10% FCS, penicillin (100 U/mL), and streptomycin (100 μg/mL) and pressed through the cell strainer until 5 mL cell suspension had been collected. The samples were centrifuged at 1200 rpm for 10 min at 4 °C. […] Two micrograms per sample of the extracted RNA were reverse-transcribed into cDNA using the High-Capacity cDNA Reverse Transcription Kit (4368814, Thermo Fischer Scientific, Inc.) according to the manufacturer’s protocol. mRNA expression was studied by quantitative real-time PCR analysis with a StepOnePlus System (Applied Biosystems) based on the 2^−ΔCT method (Supplementary Fig. 6) or the 2^−ΔΔCT method (Fig. 6) using Power SYBR Green PCR Master Mix (Life Technologies). […]

SMILES | anti-steatotic effect ([1]; OCA 30 mg/kg, OCA/elafibranor 30 mg/kg + 10 mg/kg, elafibranor 10 mg/kg) | anti-fibrotic activity ([1]; equivalent, previously reported study) | EC50 ([2]; EC50 [μM] PPARα, HEK293T, mean ± SEM, n = 3) | EC50 ([2]; PPARα EC50, as stated in text) | Emax ([2]; read-out: max. rel. act. PPARα) | EC50 [3] | selectivity among nuclear receptors related to PPARs and FXR [4] | adverse effects, behaviour [5] | hepatic expression of BSEP, SHP, LPL, PCK and CRAT, 12 h ([5]; 12 h after treatment, vs. vehicle) | effect on FXR- and PPAR-regulated gene expression in livers, 18 h ([5]; after 18 h)
CC[C@H]1[C@@H](O)[C@@H]2[C@H](CC[C@]3(C)[C@@H]([C@H](C)CCC(=O)O)CC[C@@H]23)[C@@]2(C)CC[C@@H](O)C[C@@H]12 [OCA, 6α-ethylchenodeoxycholic acid, reference compound] | marked reductions in steatosis | only weak anti-fibrotic activity compared to vehicle | – | – | – | – | – | – | – | –
CC(C)(C)c1ccc(C(=O)Nc2cccc(CCC(=O)O)c2)c(NC(=O)c2ccc(-c3ccco3)cc2)c1 [compound 41, 3-(3-[4-{tert-Butyl}-2-{4-(2-furyl)}benzamido]phenyl)propanoic acid] | – | – | 0.17 ± 0.04 µM | 0.168 µM | 72% | 170 nM | no off-target liability | no adverse effects | increased | significantly reduced
